Patent US9771357B2, “ALXR agonist compound” (ONO PHARMACEUTICAL CO., LTD., priority 2013, dated 2017)

Target: T1, ALXR (Homo sapiens, UniProt P25090)
T1 construct: expressed in transfected cells; host or cells: CHO-K1
T1 sequence (P25090 1-351): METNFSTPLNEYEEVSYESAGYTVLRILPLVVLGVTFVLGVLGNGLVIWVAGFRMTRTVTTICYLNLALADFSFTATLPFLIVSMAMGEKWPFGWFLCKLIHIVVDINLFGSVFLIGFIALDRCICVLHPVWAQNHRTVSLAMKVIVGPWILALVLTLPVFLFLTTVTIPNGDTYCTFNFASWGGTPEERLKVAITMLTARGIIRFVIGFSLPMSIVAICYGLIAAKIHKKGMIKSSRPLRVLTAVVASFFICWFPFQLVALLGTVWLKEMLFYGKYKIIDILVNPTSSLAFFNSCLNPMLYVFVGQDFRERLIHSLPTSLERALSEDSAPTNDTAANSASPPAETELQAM
Experiment: IP1 (Inositol Monophosphate) Assay
Assay type: cell-based
Conditions: ALXR/Gα16 expression CHO-K1 cell strain; for IP1 Concentration: compound at 3 μM, 30 minutes, medium group 293.6
Protocol: IP1 (Inositol Monophosphate) Assay
An ALXR/Gα16 expression CHO-K1 cell strain having 3×10^4 cells/100 μL was seeded on a 96-well plate using an F-12 culture medium (10% FBS, 100 μmol/L nonessential amino acid, 100 U/mL penicillin, 100 μg/mL streptomycin, 0.25 μg/mL Amphotericin B, 400 μg/mL Geneticin, and 5 μg/mL Puromycin), and cultured at 37° C. in 5% CO2 overnight. After the culture supernatant was removed, a 70-μL Basal buffer (10 mmol/L HEPES, 1 mmol/L CaCl2, 0.5 mmol/L MgCl2, 4.2 mmol/L KCl, 146 mmol/L NaCl, 5.5 mmol/L glucose, 50 mmol/L LiCl), each buffer containing one of the compounds and the reference example compound, was added. Here, as the medium group, a Basal buffer containing 1% DMSO was used. After the cell strain was further cultured at 37° C. in 5% CO2 for 30 minutes, IP1-d2 conjugate (Cisbio) and Anti-IP1 cryptate Tb conjugate (Cisbio) diluted with Lysis buffer (Cisbio) were each added in an amount of 15 μL. The culture was allowed to stand for 1 hour under shaded conditions at room temperature. Subsequently, using EnVision (PerkinElmer), measurement was performed at an excitation wavelength of 320 nm and fluorescence wavelengths of 620 nm and 665 nm, and the fluorescence ratio 665 nm/620 nm was calculated. With respect to the IP1 concentration, a calibration curve was produced using an IP1 calibrator (Cisbio) to be converted into concentration. The measured values were analyzed using XLfit (IDBS).

Compound | IP1 Concentration | enhancement of IP1 concentration as compared with the medium group (3 μM)
Cc1sc(C2(O)CCN(C(=O)Nc3ccc(C(F)(F)F)cc3)CC2)nc1-c1cccc(F)c1 [27(1), 4-[4-(3-Fluorophenyl)-5-methyl-1,3-thiazol-2-yl]-4-hydroxy-N-[4-(trifluoromethyl)phenyl]-1-piperidinecarboxamide] | 539.3 nmol/L | 
O=C(Nc1cccnc1)N1CCC(c2nc(-c3ccccc3)cs2)CC1 [Reference Example Compound, 4-(4-Phenyl-1,3-thiazol-2-yl)-N-(3-pyridyl)-1-piperidinecarboxamide, reference compound] | 282.5 nmol/L | no enhancement was seen
N#Cc1sc(C2CCN(C(=O)Nc3ccc(C(F)(F)F)cc3)CC2)nc1-c1ccccc1 [Example 60, 4-(5-Cyano-4-phenyl-1,3-thiazol-2-yl)-N-[4-(trifluoromethyl)phenyl]-1-piperidinecarboxamide] | 1020.9 nmol/L | 
Cc1sc(C2(NS(C)(=O)=O)CCN(C(=O)Nc3ccc(C(F)(F)F)cc3)CC2)nc1-c1ccccc1 [Example 51, 4-(5-Methyl-4-phenyl-1,3-thiazol-2-yl)-4-[(methylsulfonyl)amino]-N-[4-(trifluoromethyl)phenyl]-1-piperidinecarboxamide] | 592.1 nmol/L | 
Cc1sc(C2CCN(C(=O)Nc3ccc(C(F)(F)F)cc3)CC2)nc1-c1cccc(F)c1 [29(2)] | 853.7 nmol/L | 
O=C(Nc1ccc(C(F)(F)F)cc1)N1CCC(c2nc(-c3cccnc3)cs2)CC1 [Example 40, 4-[4-(3-Pyridyl)-1,3-thiazol-2-yl]-N-[4-(trifluoromethyl)phenyl]-1-piperidinecarboxamide] | 789.9 nmol/L | 
